Reference: patent US9187465B2, “Oxazole tyrosine kinase inhibitors” (Sareum Limited, priority 2007, dated 2015)

Key:
HCT116 cells = assay: Anti-proliferative activity, Alamar Blue assay, HCT116; type: cell-based; details: Homo sapiens, HCT-116, 72 hours, read-out: cell proliferation IC50
Protocol: (§1) The anti-proliferative activities of compounds of the invention are determined by measuring the ability of the compounds to inhibition of cell growth in a number of cell lines. Inhibition of cell growth is measured using the Alamar Blue assay (Nociari et al., Journal of Immunological Methods (1998) 213, 157-167). The method is based on the ability of viable cells to reduce resazurin to its fluorescent product resorufin. For each proliferation assay cells are plated onto 96 well plates and allowed to recover for 16 hours prior to the addition of inhibitor compounds for a further 72 hours. At the end of the incubation period 10% (v/v) Alamar Blue is added and incubated for a further 6 hours prior to determination of fluorescent product at Excitation 535 nm and Emission 590 nm. In the case of the non-proliferating cell assay cells are maintained at confluence for 96 hour prior to the addition of inhibitor compounds for a further 72 hours. The number of viable cells is determined by Alamar Blue assay as before. All cell lines are obtained from ECACC (European Collection of cell Cultures).

human FLT4 = target: T1, human FLT4 (Homo sapiens, UniProt P35916); assay: FLT4 kinase assay (DELFIA enzyme inhibition); type: biochemical; details: read-out: FLT4 IC50
T1 construct: a construct expressing the human FLT4 (789-1207) with an amino terminal GST tag; host or cells: Sf9 insect cells (baculovirus)
T1 sequence (P35916 789-1207): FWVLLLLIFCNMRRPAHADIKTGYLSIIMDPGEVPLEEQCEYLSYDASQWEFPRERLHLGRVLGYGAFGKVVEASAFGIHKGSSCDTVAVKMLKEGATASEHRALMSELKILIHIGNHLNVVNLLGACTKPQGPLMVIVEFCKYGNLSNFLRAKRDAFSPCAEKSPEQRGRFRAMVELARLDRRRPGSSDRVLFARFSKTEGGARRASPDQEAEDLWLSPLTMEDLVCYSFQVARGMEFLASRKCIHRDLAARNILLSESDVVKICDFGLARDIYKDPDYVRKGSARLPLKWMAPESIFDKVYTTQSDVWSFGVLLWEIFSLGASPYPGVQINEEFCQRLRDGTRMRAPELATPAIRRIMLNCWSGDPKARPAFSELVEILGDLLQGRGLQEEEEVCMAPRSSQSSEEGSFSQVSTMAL
Outline: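 Read-out is DELFIA: biotinylated MET Tyr1253-derived peptide captured on Neutravidin, phosphotyrosine detected by Eu-antibody time-resolved fluorescence. Enzyme is Sf9-expressed GST-FLT4 (789-1207), reacting 30 min at room temperature before EDTA stop. IC50 derived from plotted % inhibition.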

human Aurora A = target: T2, human Aurora A (Homo sapiens, UniProt O14965); assay: Aurora A kinase assay (DELFIA enzyme inhibition); type: biochemical; details: read-out: Aurora A IC50
T2 construct: Histidine tag (N); host or cells: Sf9 insect cells (baculovirus)
T2 sequence (O14965 1-403): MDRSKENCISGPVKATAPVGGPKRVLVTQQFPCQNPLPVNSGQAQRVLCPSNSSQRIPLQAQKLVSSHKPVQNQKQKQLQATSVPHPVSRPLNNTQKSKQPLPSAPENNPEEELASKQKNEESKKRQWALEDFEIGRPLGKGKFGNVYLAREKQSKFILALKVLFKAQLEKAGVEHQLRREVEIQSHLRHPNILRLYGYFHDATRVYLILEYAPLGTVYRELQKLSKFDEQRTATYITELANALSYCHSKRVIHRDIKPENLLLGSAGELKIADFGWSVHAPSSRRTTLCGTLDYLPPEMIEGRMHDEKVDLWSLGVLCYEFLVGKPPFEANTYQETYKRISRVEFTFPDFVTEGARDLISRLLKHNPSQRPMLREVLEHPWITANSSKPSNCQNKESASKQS
Outline: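 DELFIA read-out (time-resolved Eu fluorescence, 620 nm emission) after Neutravidin capture of biotinylated peptide substrate and antibody detection. Reaction: Ni-agarose-purified Aurora A, 30 min at room temperature, stopped with 100 mM EDTA.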

human FLT3 = target: T3, human FLT3 (Homo sapiens, UniProt P36888); assay: FLT3 kinase assay (DELFIA enzyme inhibition); type: biochemical
T3 construct: a construct expressing the human FLT3 (564-993) with an amino terminal GST tag; host or cells: Sf9 insect cells (baculovirus)
T3 sequence (P36888 564-993): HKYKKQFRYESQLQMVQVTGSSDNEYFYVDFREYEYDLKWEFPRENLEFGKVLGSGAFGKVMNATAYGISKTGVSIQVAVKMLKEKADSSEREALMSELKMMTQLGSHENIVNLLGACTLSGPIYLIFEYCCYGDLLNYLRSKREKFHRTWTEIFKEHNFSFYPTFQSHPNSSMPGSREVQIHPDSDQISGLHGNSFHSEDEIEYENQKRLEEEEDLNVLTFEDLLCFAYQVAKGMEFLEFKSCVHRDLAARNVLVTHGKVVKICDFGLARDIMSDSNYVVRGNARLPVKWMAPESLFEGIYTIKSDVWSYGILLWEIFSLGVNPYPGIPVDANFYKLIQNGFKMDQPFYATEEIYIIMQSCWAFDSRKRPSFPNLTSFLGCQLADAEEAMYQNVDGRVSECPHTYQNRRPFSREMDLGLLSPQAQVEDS
Outline: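 GST-tagged human FLT3 (564-993), expressed in sf9 cells, phosphorylated a biotinylated Gastrin Precursor (Tyr 87)-derived peptide for 30 min at room temperature before EDTA stop. The captured peptide was detected by Eu-labelled anti-phosphotyrosine DELFIA time-resolved fluorescence. IC50 was derived from % inhibition curves.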

[1] = test system: A549 human lung carcinoma cells; assay: Anti-proliferative activity, Alamar Blue assay, A549; type: cell-based; details: A549, 72 h, read-out: cell growth IC50
Protocol: as §1

[2] = test system: SW620, HCT-116, Colo205, A549, Calu-6 or HL-60 tumour xenografts; details: cited from earlier work
[3] = test system: treatment-refractory primary Acute Myelogenous Leukemia (AML) cells; details: treatment-refractory cells from patients; cited from earlier work

Structure (SMILES) | IC50 (HCT116 cells) | IC50 (human FLT4) | IC50 (human Aurora A) | IC50 (human FLT3) | IC50 [1] | complete tumour regression (animals) ([2]; HL-60 xenograft) | inhibition of tumour growth ([2]; dosed over 48 h via sub-cutaneous mini-pump infusion, all xenograft models) | killing of primary AML cells [3]
NC(=O)c1nc(-c2cccc3[nH]ncc23)oc1-c1ccc(N2CCNCC2)cc1 [Example M-17, 2-(1H-indazol-4-yl)-5-(4-(piperazin-1-yl)phenyl)oxazole-4-carboxamide] | < 10 µM | < 10 µM | < 10 µM | < 10 µM | < 10 µM |  |  | 
NC(=O)c1nc(-c2c(F)cccc2Cl)oc1Nc1ccc(N2CCNCC2)cc1 [Example Q-36, 2-(2-chloro-6-fluorophenyl)-5-(4-(piperazin-1-yl)phenylamino)oxazole-4-carboxamide] | < 10 µM | < 10 µM | < 10 µM | < 10 µM | < 10 µM |  |  | 
CCN(CCCOc1ccc2c(Nc3cc(CC(=O)Nc4cccc(F)c4)n[nH]3)ncnc2c1)CCOP(=O)(O)O [AZD1152] |  |  |  |  |  | 8 of 11 | 55% to 100 | 
NC(=O)c1nc(-c2cccc3[nH]ccc23)oc1-c1ccc(N2CCNCC2)cc1 [Example M-12, 2-(1H-indol-4-yl)-5-(4-(piperazin-1-yl)phenyl)oxazole-4-carboxamide] | < 10 µM | < 10 µM | < 10 µM | < 10 µM | < 10 µM |  |  | 
Cc1cc(Nc2cc(N3CCN(C)CC3)nc(Sc3ccc(NC(=O)C4CC4)cc3)n2)n[nH]1 [VX-680] |  |  |  |  |  |  |  | potently killed
NC(=O)c1nc(Nc2c(F)cccc2F)oc1-c1ccc(N2CCNCC2)cc1 [Example R-13, 2-(2,6-difluorophenylamino)-5-(4-(piperazin-1-yl)phenyl)oxazole-4-carboxamide] | < 10 µM | < 10 µM | < 10 µM | < 10 µM | < 10 µM |  |  | 
NC(=O)c1nc(-c2c(F)cccc2F)oc1Nc1ccc(N2CCNCC2)cc1 [Example Q-11, 2-(2,6-difluorophenyl)-5-(4-(piperazin-1-yl)phenylamino)oxazole-4-carboxamide] | < 10 µM | < 10 µM | < 10 µM | < 10 µM | < 10 µM |  |  | 
CN1CCN(C(=O)c2ccc(Nc3oc(-c4c(F)cccc4F)nc3C(N)=O)cc2)CC1 [Example Q-14, 2-(2,6-difluorophenyl)-5-(4-(4-methylpiperazine-1-carbonyl)phenylamino) oxazole-4-carboxamide] | < 10 µM | < 10 µM | < 10 µM | < 10 µM | < 10 µM |  |  | 
CN1CCN(C(=O)c2ccc(Nc3oc(-c4c(F)cccc4Cl)nc3C(N)=O)cc2)CC1 [Example Q-57] | < 10 µM | < 10 µM | < 10 µM | < 10 µM | < 10 µM |  |  | 
NC(=O)c1nc(-c2c(F)cccc2F)oc1-c1ccc(N2CCNCC2)cc1 [Example G-3, 2-(2,6-difluorophenyl)-5-(4-(piperazin-1-yl)phenyl)oxazole-4-carboxamide] | < 10 µM | < 10 µM | < 10 µM | < 10 µM | < 10 µM |  |  | 
CS(=O)(=O)c1ccc(Nc2oc(-c3c(F)cccc3F)nc2C(N)=O)cc1 [Example Q-3, 2-(2,6-difluorophenyl)-5-(4-(methylsulfonyl)phenylamino)oxazole-4-carboxamide] | < 10 µM | < 10 µM | < 10 µM | < 10 µM | < 10 µM |  |  | 
NC(=O)c1nc(-c2c(F)cccc2F)oc1Nc1ccc(S(=O)(=O)N2CCCCC2)cc1 [Example Q-28, 2-(2,6-difluorophenyl)-5-(4-(piperidin-1-ylsulfonyl)phenylamino)oxazole-4-carboxamide] |  | < 10 µM | < 100 µM | < 100 µM | < 10 µM |  |  | 
NC(=O)c1nc(-c2c(F)cccc2Cl)oc1-c1ccc(N2CCNCC2)cc1 [Example G-5, 2-(2-chloro-6-fluorophenyl)-5-(4-(piperazin-1-yl)phenyl)oxazole-4-carboxamide] | < 10 µM | < 10 µM | < 10 µM | < 10 µM | < 10 µM |  |  | 
CN(C)S(=O)(=O)c1ccc(Nc2oc(-c3c(F)cccc3F)nc2C(N)=O)cc1 [Example Q-26, 2-(2,6-difluorophenyl)-5-(4-(N′,N′-dimethylsulfonamide)phenylamino)oxazole-4-carboxamide] |  | < 10 µM | < 10 µM | < 10 µM | < 10 µM |  |  | 
